Test results published in patent US7553966B2, “Glucocorticoid mimetics, methods of making them, pharmaceutical compositions, and uses thereof” (Boehringer Ingelheim Pharmaceuticals, Inc., priority 2002, dated 2009).

Columns and labels:
[1] = target: T1, human glucocorticoid receptor (GR) complex (Homo sapiens, UniProt P04150); test: Glucocorticoid Receptor Competitive Binding Assay (fluorescence polarization, TAMRA-labeled dexamethasone probe); details: qualitative statement; competition with TAMRA-labeled dexamethasone
T1 construct: made in house; host or cells: insect expression system (baculovirus lysate)
T1 sequence (P04150 1-777): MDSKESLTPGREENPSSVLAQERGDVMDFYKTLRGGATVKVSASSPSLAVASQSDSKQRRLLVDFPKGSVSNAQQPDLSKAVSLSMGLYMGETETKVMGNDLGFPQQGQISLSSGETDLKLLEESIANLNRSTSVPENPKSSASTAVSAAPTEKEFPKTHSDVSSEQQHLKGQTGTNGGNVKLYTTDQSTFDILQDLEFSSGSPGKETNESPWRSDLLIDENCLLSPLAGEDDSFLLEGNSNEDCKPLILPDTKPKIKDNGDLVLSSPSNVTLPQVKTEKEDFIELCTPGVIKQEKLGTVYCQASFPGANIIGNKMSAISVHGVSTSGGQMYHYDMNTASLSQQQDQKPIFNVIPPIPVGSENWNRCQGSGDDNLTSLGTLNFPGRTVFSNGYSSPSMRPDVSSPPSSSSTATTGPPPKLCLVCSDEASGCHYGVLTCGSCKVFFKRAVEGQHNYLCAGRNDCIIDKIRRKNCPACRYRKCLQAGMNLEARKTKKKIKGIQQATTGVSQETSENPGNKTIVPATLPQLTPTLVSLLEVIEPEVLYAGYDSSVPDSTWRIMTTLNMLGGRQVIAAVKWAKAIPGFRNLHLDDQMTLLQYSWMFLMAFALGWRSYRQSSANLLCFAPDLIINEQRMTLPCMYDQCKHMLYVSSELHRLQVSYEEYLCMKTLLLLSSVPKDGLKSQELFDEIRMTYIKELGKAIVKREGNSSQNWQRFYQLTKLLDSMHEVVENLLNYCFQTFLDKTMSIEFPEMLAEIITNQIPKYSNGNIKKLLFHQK
How it was run: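 Competition with TAMRA-dexamethasone for a human GR complex expressed in insect cells, read by fluorescence polarization. Buffer was 10 mM TES, 50 mM KCl, 20 mM Na2MoO4, 1.5 mM EDTA, 0.04% CHAPS, 10% glycerol, 1 mM DTT, pH 7.4.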

glucocorticoid receptor = test: Glucocorticoid Receptor Cell Assays (agonist activity in one or more of the above assays); type: cell-based; details: qualitative statement; assay not specified
Protocol: B. Glucocorticoid Receptor Cell Assays
1. Induction of Aromatase in Fibroblasts (Cell Assay for Transactivation)
Dexamethasone, a synthetic ligand to the glucocorticoid receptor (GR), induces expression of aromatase in human foreskin fibroblast cells. The activity of aromatase is measured by the conversion of testosterone to estradiol in culture media.
On the day of the experiment, the media in the wells is replaced with fresh media. Cells are treated with test compounds to final concentrations of 10^−5 M to 10^−8 M, and testosterone to a final concentration of 300 ng/mL. Each well has a total volume of 100 μL. Samples are made in duplicates. Control wells include: (a) wells that receive testosterone only, and (b) wells that receive testosterone plus 2 μM of dexamethasone to provide maximum induction of aromatase. Plates are incubated at 37° C. overnight (15 to 18 hours), and supernatants are harvested at the end of incubation. […] The amount of estradiol is inversely proportional to the ELISA signals in each well. The extent of aromatase induction by test compounds is expressed as a relative percentage to dexamethasone. EC50 values of test compounds are derived by non-linear curve fitting.
2. Inhibition of IL-6 Production in Fibroblasts (Cell Assay for Transrepression)
Human foreskin fibroblast cells produce IL-6 in response to stimulation by pro-inflammatory cytokine IL-1.
On the next day, media in the wells is replaced with fresh media. Cells are treated with IL-1 (rhIL-1α, R&D Systems Cat. No. 200-LA) to a final concentration of 1 ng/mL, and with test compounds to final concentrations of 10^−5 M to 10^−8 M, in a total volume of 200 μL per well. Samples are done in duplicates. […] Positive control wells receive IL-1 only and represent maximum (or 100%) amount of IL-6 production. Plates are incubated at 37° C. overnight (15 to 18 hours), and supernatants are harvested at the end of incubation. IL-6 levels in the supernatants are determined by the ELISA kits for IL-6 (MedSystems Diagnostics GmbH, Vienna, Austria, Cat. No. BMS213TEN) according to manufacture's instructions. The extent of inhibition of IL-6 by test compounds is expressed in percentage relative to positive controls. IC50 values of test compounds are derived by non-linear curve fitting.
Evaluation of agonist or antagonist activity of compounds binding to the glucocorticoid receptor may be determined by any of the assays.
3. Modulation of Tyrosine Aminotransferase (TAT) Induction in Rat Hepatoma Cells
Testing of compounds for agonist or antagonist activity in induction of tyrosine aminotransferase (TAT) in rat hepatoma cells.
H4-II-E-C3 cells were incubated overnight in 96 well plates (20,000 cells/100 μL/well) in MEM medium containing 10% heat inactivated FBS and 1% nonessential amino acids. On the next day, cells were stimulated with the indicated concentrations of dexamethasone or test compound (dissolved in DMSO, final DMSO concentration 0.2%) for 18 hours. Control cells were treated with 0.2% DMSO. After 18 hours, the cells were lysed in a buffer containing 0.1% Triton X-100 and the TAT activity was measured in a photometric assay using tyrosine and alpha-ketoglutarate as substrates.
For measuring antagonist activity, the hepatoma cells were pre-stimulated by addition of dexamethasone (concentration ranges from 3×10^−9 M to 3×10^−8 M) shortly before the test compound was applied to the cells.
4. Modulation of MMTV-Luc Induction in HeLa Cells
Testing of compounds for agonist or antagonist activity in stimulation of MMTV-(mouse mammary tumor virus) promoter in HeLa cells.
Cells were cultured overnight in DMEM medium without phenol red, supplemented with 3% CCS (charcoal treated calf serum) and then transferred to 96 well plates (15,000 cells/100 μL/well).

With `CC(C)(CC(O)(Cc1ccnc2cccc(F)c12)C(F)(F)F)c1ccc(F)cc1` (stereo not drawn) [1,1,1-Trifluoro-4-(4-fluorophenyl)-2-(5-fluoroquinolin-4-ylmethyl)-4-methylpentan-2-ol] the “activity in the GR binding assay” value [1] was “potent activity” and the “activity as agonists of the glucocorticoid receptor function in one or more of the above assays” value (from here on “activity as agonists”) (glucocorticoid receptor) was “potent agonists”.
With `Cc1cccc2[nH]c(CC(O)(CC(C)(C)c3ccc(F)cc3)C(F)(F)F)cc12` (stereo not drawn) [1,1,1-Trifluoro-4-(4-fluorophenyl)-4-methyl-2-(4-methyl-1H-indol-2-ylmethyl)pentan-2-ol] the “activity in the GR binding assay” value [1] was “potent activity” and the “activity as agonists” value (glucocorticoid receptor) was “potent agonists”.
With `CC(C)(CC(O)(Cc1cc2ccccc2[nH]1)C(F)(F)F)c1cc(F)cc2c1OCC2` (stereo not drawn) [1,1,1-Trifluoro-4-(5-fluoro-2,3-dihydrobenzofuran-7-yl)-2-(1H-indol-2-ylmethyl)-4-methylpentan-2-ol] the “activity in the GR binding assay” value [1] was “potent activity” and the “activity as agonists” value (glucocorticoid receptor) was “potent agonists”.
`CC(C)(CC(O)(Cc1ccnc2ccccc12)C(F)(F)F)c1cc(F)cc2c1OCC2` (stereo not drawn) [1,1,1-Trifluoro-4-(5-fluoro-2,3-dihydrobenzofuran-7-yl)-4-methyl-2-quinolin-4-ylmethylpentan-2-ol] was tested, and the “activity in the GR binding assay” value [1] was “potent activity” and the “activity as agonists” value (glucocorticoid receptor) was “potent agonists”.
In the case of `COc1ccc(F)cc1C(C)(C)CC(O)(Cc1cc2ccccc2[nH]1)C(F)(F)F` (stereo not drawn) [1,1,1-Trifluoro-4-(5-fluoro-2-methoxyphenyl)-2-(1H-indol-2-ylmethyl)-4-methylpentan-2-ol], the “activity in the GR binding assay” value [1] is reported as “potent activity” and the “activity as agonists” value (glucocorticoid receptor) is reported as “potent agonists”.
In the case of `COc1ccc(F)cc1C(C)(C)CC(O)(Cc1ccnc2cc(F)ccc12)C(F)(F)F` (stereo not drawn) [1,1,1-Trifluoro-4-(5-fluoro-2-methoxyphenyl)-2-(7-fluoroquinolin-4-ylmethyl)-4-methylpentan-2-ol], the “activity in the GR binding assay” value [1] is reported as “potent activity” and the “activity as agonists” value (glucocorticoid receptor) is reported as “potent agonists”.
With `COc1ccc(F)cc1C(C)(C)CC(O)(Cc1cc2ccncc2[nH]1)C(F)(F)F` (stereo not drawn) [1,1,1-Trifluoro-4-(5-fluoro-2-methoxyphenyl)-4-methyl-2-(1H-pyrrolo[2,3-c]pyridin-2-ylmethyl)pentan-2-ol] the “activity in the GR binding assay” value [1] was “potent activity” and the “activity as agonists” value (glucocorticoid receptor) was “potent agonists”.
For `COc1ccc(F)cc1C(C)(C)CC(O)(Cc1cc2cnccc2[nH]1)C(F)(F)F` (stereo not drawn) [1,1,1-Trifluoro-4-(5-fluoro-2-methoxyphenyl)-4-methyl-2-(1H-pyrrolo[3,2-c]pyridin-2-ylmethyl)pentan-2-ol], the “activity in the GR binding assay” value [1] was “potent activity” and the “activity as agonists” value (glucocorticoid receptor) was “potent agonists”.
With `COc1ccc(F)cc1C(C)(C)CC(O)(Cc1[nH]c2cnccc2c1C)C(F)(F)F` (stereo not drawn) [1,1,1-Trifluoro-4-(5-fluoro-2-methoxyphenyl)-4-methyl-2-(3-methyl-1H-pyrrolo[2,3-c]pyridin-2-ylmethyl)pentan-2-ol] the “activity in the GR binding assay” value [1] was “potent activity” and the “activity as agonists” value (glucocorticoid receptor) was “potent agonists”.
With `COc1ccc(F)cc1C(C)(C)CC(O)(Cc1ccnc2ccccc12)C(F)(F)F` (stereo not drawn) [1,1,1-Trifluoro-4-(5-fluoro-2-methoxyphenyl)-4-methyl-2-(quinolin-4-ylmethyl)pentan-2-ol] the “activity in the GR binding assay” value [1] was “potent activity” and the “activity as agonists” value (glucocorticoid receptor) was “potent agonists”.
With `Cc1ccc(F)cc1C(C)(C)CC(O)(Cc1cc2ccccc2[nH]1)C(F)(F)F` (stereo not drawn) [1,1,1-Trifluoro-4-(5-fluoro-2-methylphenyl)-2-(1H-indol-2-ylmethyl)-4-methylpentan-2-ol] the “activity in the GR binding assay” value [1] was “potent activity” and the “activity as agonists” value (glucocorticoid receptor) was “potent agonists”.
`Cc1ccc(F)cc1C(C)(C)CC(O)(Cc1cc2c(C)cccc2[nH]1)C(F)(F)F` (stereo not drawn) [1,1,1-Trifluoro-4-(5-fluoro-2-methylphenyl)-4-methyl-2-(4-methyl-1H-indol-2-ylmethyl)pentan-2-ol] was tested, and the “activity in the GR binding assay” value [1] was “potent activity” and the “activity as agonists” value (glucocorticoid receptor) was “potent agonists”.
`CC(C)(CC(O)(Cc1ccnc2ccccc12)C(F)(F)F)c1cccc(C(F)(F)F)c1` (stereo not drawn) [1,1,1-Trifluoro-4-methyl-2-quinolin-4-ylmethyl-4-(3-trifluoromethylphenyl)pentan-2-ol] was tested, and the “activity in the GR binding assay” value [1] was “potent activity” and the “activity as agonists” value (glucocorticoid receptor) was “potent agonists”.
`Cc1cc2c(c(C(C)(C)CC(O)(Cc3ccnc4ccccc34)C(F)(F)F)c1)OCC2` (stereo not drawn) [1,1,1-Trifluoro-4-methyl-4-(5-methyl-2,3-dihydrobenzofuran-7-yl)-2-quinolin-4-ylmethylpentan-2-ol] was tested, and the “activity in the GR binding assay” value [1] was “potent activity” and the “activity as agonists” value (glucocorticoid receptor) was “potent agonists”.
`CC(C)(CC(O)(Cc1cc2ccncc2[nH]1)C(F)(F)F)c1ccccc1` (stereo not drawn) [1,1,1-Trifluoro-4-methyl-4-phenyl-2-(1H-pyrrolo[2,3-c]pyridin-2-ylmethyl)pentan-2-ol] was tested, and the “activity in the GR binding assay” value [1] was “potent activity” and the “activity as agonists” value (glucocorticoid receptor) was “potent agonists”.
For `CC(C)(CC(O)(Cc1cc2cnccc2[nH]1)C(F)(F)F)c1ccccc1` (stereo not drawn) [1,1,1-Trifluoro-4-methyl-4-phenyl-2-(1H-pyrrolo[3,2-c]pyridin-2-ylmethyl)pentan-2-ol], the “activity in the GR binding assay” value [1] was “potent activity” and the “activity as agonists” value (glucocorticoid receptor) was “potent agonists”.
With `CC(C)(CC(O)(Cc1ccnc2ccccc12)C(F)(F)F)c1ccccc1` (stereo not drawn) [1,1,1-Trifluoro-4-methyl-4-phenyl-2-quinolin-4-ylmethylpentan-2-ol] the “activity in the GR binding assay” value [1] was “potent activity” and the “activity as agonists” value (glucocorticoid receptor) was “potent agonists”.
With `COc1ccc(F)cc1C(C)(C)CC(O)(Cc1cc(Cl)nc(Cl)c1)C(F)(F)F` (stereo not drawn) [2-(2,6-Dichloropyridin-4-ylmethyl)-1,1,1-trifluoro-4-(5-fluoro-2-methoxyphenyl)-4-methylpentan-2-ol] the “activity in the GR binding assay” value [1] was “potent activity” and the “activity as agonists” value (glucocorticoid receptor) was “potent agonists”.
